{"source": "patent US20240252454A1", "about": "“COMPOSITION COMPRISING AN INHIBITOR OF MITOCHONDRIAL TRANSCRIPTION” (LEAD DISCOVERY CENTER GMBH, priority 2021, published 2024)", "key": {"[1]": {"tested_on": "A2780 ovarian carcinoma xenograft", "assay": "in vivo xenograft study with IMT and MEKi in A2780", "protocol": "Time course of tumour growth (top) and body weight change (bottom). Transplant with A2780 on day 0, stratification on day six into six groups (n=8). Treatment with vehicle formulation, twice daily 25 mg/kg or 12.5 mg/kg Selumetinib, once daily 100 mg/kg (3S)-1-[(2R)-2-[4-(2-chloro-4-fluoro-phenyl)-2-oxo-chromen-7-yl]oxypropanoyl]piperidine-3-carboxylic acid, or the combination of IMT with 12.5 mg/kg MEKi or 25 mg/kg MEKi as indicated. Error bars indicate the standard deviation of the respective group. * indicates significant differences from the control group (nonparametric Whitnes-U test, p<0.05).\nFemale NMRI: nu/nu mice were injected subcutaneously with the ovarian carcinoma cell line and, after reaching a palpable tumour volume of 0.2 cm3, were randomized and divided into groups of eight animals each. In addition to a control group, which was administered only with the vehicle formulation, additional groups were given 100 mg/kg (3S)-1-[(2R)-2-[4-(2-chloro-4-fluoro-phenyl)-2-oxo-chromen-7-yl]oxypropanoyl]piperidine-3-carboxylic acid, 12.5 mg/kg AZD6244, 25 mg/kg AZD6244 or the combination of 100 mg/kg (3S)-1-[(2R)-2-[4-(2-chloro-4-fluoro-phenyl)-2-oxo-chromen-7-yl]oxypropanoyl]piperidine-3-carboxylic acid and 12.5 or 25 mg/kg AZD6244 was administered. The substance was administered orally over 21 days, twice daily in 25% PEG400, 57% HPbCD. […]"}, "HEC59": {"tested_on": "HEC59", "assay": "CellTiter-GLO (CTG) assay, combinatorial matrix", "format": "cell-based", "conditions": "30 μM to 15 nM IMT + 30 μM to 40 nM BAY-876"}, "A2780": {"tested_on": "A2780", "assay": "CellTiter-GLO (CTG) assay, combinatorial matrix", "format": "cell-based", "conditions": "for Measured residual activity (%) based on an untreated control group (=100%): A2780, 72 h, cellular ATP content (CellTiter-GLO)", "protocol": "To determine the in vitro cellular viability, cellular ATP concentrations were measured using a luminescence-based homogenous assay format, as described here. […] Optimal cell density for each cell line was determined to guarantee linearity. For viability assays with compounds, cells were then seeded at a density of 200 to 1000 per well in 25 μl in 384-well plates (Greiner Bio-One, Frickenhausen, Germany). After overnight incubation at 37° C./5% CO2, 25 nl or 75 nl compounds were added to each sample well by using BIOMEK FXP Laboratory Automation Workstation (Beckman Coulter, USA). Wells with cells and 0.1% or 0.3% DMSO in culture medium were used as positive controls, wells with cells and 10 μM staurosporine (Selleck Chemicals, Huston, USA) in culture medium were used as negative controls. Upon incubation with compounds for 72 h at 37° C./5% CO2 25 μl Cell Titer Glo reagent (Promega, Madison, USA, European Pat. No. 1131441, U.S. Pat. Nos. 7,083,911, 7,452,663 and 7,732,128) 1:2 diluted with cell culture medium) was added to each well to determine cell viability. 384well-plates were placed for 2 min on an orbital microplate shaker and incubated for further 10 min at room temperature resulting in a stabilization of light signal. Luminescence was measured by Envision Plate Reader (Perkin Elmer, USA).\nAll in vitro cell culture experiments were carried out under near physiological glucose concentrations (5 mM) in at least two independent replicates."}, "[2]": {"assay": "PK and toxicological studies, plasma and liver concentrations", "format": "in vivo", "conditions": "oral combination of the IMT and Venetoclax in 0.5% methyl cellulose in water, NBSGW mice, 4 hours, plasma and liver (FIG. 4)", "protocol": "Combinations s of 2-[(3R)-1-[(2R)-2-[4-(2-chloro-4-fluoro-phenyl)-2-oxo-chromen-7-yl]oxypropanoyl]-3-piperidyl]acetic acid and Venetoclax were administered orally in a formulation of 0.5% methyl cellulose in water, before the respective substance concentrations (y-axis) of Venetoclax (left) or 2-[(3R)-1-[(2R)-2-[4-(2-chloro-4-fluoro-phenyl)-2-oxo-chromen-7-yl]oxypropanoyl]-3-piperidyl]acetic acid (right) after 4 hours and extraction from blood plasma or liver tissue were analysed by LC-MS. Error bars indicate the standard deviation around the mean of the multiple measurements.\nFor this, a vehicle formulation suitable for the oral administration of the combination of Venetoclax and 2-[(3R)-1-[(2R)-2-[4-(2-chloro-4-fluoro-phenyl)-2-oxo-chromen-7-yl]oxypropanoyl]-3-piperidyl]acetic acid was prepared to examine its pharmacokinetic suitability. Since the formulations based on ethanol, PEG-400 and Phosal that have been published for Venetoclax have not proven to be suitable for generating an administrable solution or suspension of IMT and Venetoclax, a simplified formulation of 0.5% methyl cellulose in water was prepared, which was tested initially in PK and toxicological studies in NBSGW mice (FIG. 4). […] On the other hand, doses that could be safely used were established in this mouse model, with which the subsequent studies could be carried out."}}, "data": [{"smiles": "C[C@@H](Oc1ccc2c(-c3ccc(F)cc3Cl)cc(=O)oc2c1)C(=O)N1CCC[C@H](C(=O)O)C1", "note": "[(3S)-1-[(2R)-2-[4-(2-chloro-4-fluoro-phenyl)-2-oxo-chromen-7-yl]oxypropanoyl]piperidine-3-carboxylic acid]", "values": [{"measurement": "final tumour volume after completion of the study", "setting": "[1]; 100 mg/kg IMT + 12.5 or 25 mg/kg AZD6244, oral, 21 days, compared to the same amounts of MEK inhibitor alone (FIG. 2)", "value": "advantage of the combination treatment"}, {"measurement": "tolerability (changes in body weight, acute overt effects)", "setting": "[1]; combination administration of IMT and AZD6244 over the course of the study", "value": "well tolerated"}, {"measurement": "combination of IMT and GLUTi compared to treatment with only the GLUTi BAY-876 alone", "setting": "HEC59", "value": "advantage of the combination"}, {"measurement": "Measured residual activity (%) based on an untreated control group (=100%)", "setting": "A2780; Teriflunomide 0 = IMT alone at the concentration (μM) in c1 of the row, IMT 0.12 µM", "value": 32, "unit": "%"}, {"measurement": "Measured residual activity (%) based on an untreated control group (=100%)", "setting": "A2780; Teriflunomide 0 = IMT alone at the concentration (μM) in c1 of the row, IMT 15 µM", "value": 28, "unit": "%"}, {"measurement": "Measured residual activity (%) based on an untreated control group (=100%)", "setting": "A2780; Teriflunomide 0.04 (μM) + IMT (μM) (30-0), IMT 0.12 µM", "value": 31, "unit": "%"}, {"measurement": "Measured residual activity (%) based on an untreated control group (=100%)", "setting": "A2780; Teriflunomide 0.04 (μM) + IMT (μM) (30-0), IMT 0.47 µM", "value": 28, "unit": "%"}, {"measurement": "Measured residual activity (%) based on an untreated control group (=100%)", "setting": "A2780; Teriflunomide 0.04 (μM) + IMT (μM) (30-0), IMT 7.5 µM", "value": 27, "unit": "%"}, {"measurement": "Measured residual activity (%) based on an untreated control group (=100%)", "setting": "A2780; Teriflunomide 0.1 (μM) + IMT at the concentration (μM) in c1 of the row (30-0), IMT 0.23 µM", "value": 29, "unit": "%"}, {"measurement": "Measured residual activity (%) based on an untreated control group (=100%)", "setting": "A2780; Teriflunomide 0.1 (μM) + IMT at the concentration (μM) in c1 of the row (30-0), IMT 7.5 µM", "value": 22, "unit": "%"}, {"measurement": "Measured residual activity (%) based on an untreated control group (=100%)", "setting": "A2780; Teriflunomide 0.4 (μM) + IMT at the concentration (μM) in c1 of the row (30-0), IMT 0.06 µM", "value": 32, "unit": "%"}, {"measurement": "Measured residual activity (%) based on an untreated control group (=100%)", "setting": "A2780; Teriflunomide 0.4 (μM) + IMT at the concentration (μM) in c1 of the row (30-0), IMT 7.5 µM", "value": 22, "unit": "%"}, {"measurement": "Measured residual activity (%) based on an untreated control group (=100%)", "setting": "A2780; Teriflunomide 0.4 (μM) + IMT at the concentration (μM) in c1 of the row (30-0), IMT 15 µM", "value": 25, "unit": "%"}, {"measurement": "Measured residual activity (%) based on an untreated control group (=100%)", "setting": "A2780; Teriflunomide 1.1 (μM) + IMT at the concentration (μM) in c1 of the row (30-0), IMT 0.06 µM", "value": 30, "unit": "%"}, {"measurement": "Measured residual activity (%) based on an untreated control group (=100%)", "setting": "A2780; Teriflunomide 1.1 (μM) + IMT at the concentration (μM) in c1 of the row (30-0), IMT 0.94 µM", "value": 23, "unit": "%"}, {"measurement": "Measured residual activity (%) based on an untreated control group (=100%)", "setting": "A2780; Teriflunomide 3.3 (μM) + IMT at the concentration (μM) in c1 of the row (30-0), IMT 0.06 µM", "value": 24, "unit": "%"}, {"measurement": "Measured residual activity (%) based on an untreated control group (=100%)", "setting": "A2780; Teriflunomide 3.3 (μM) + IMT at the concentration (μM) in c1 of the row (30-0), IMT 0.47 µM", "value": 23, "unit": "%"}, {"measurement": "Measured residual activity (%) based on an untreated control group (=100%)", "setting": "A2780; Teriflunomide 3.3 (μM) + IMT at the concentration (μM) in c1 of the row (30-0), IMT 30 µM", "value": 22, "unit": "%"}, {"measurement": "Measured residual activity (%) based on an untreated control group (=100%)", "setting": "A2780; Teriflunomide 10 (μM) + IMT at the concentration (μM) in c1 of the row (30-0), IMT 0.12 µM", "value": 23, "unit": "%"}, {"measurement": "Measured residual activity (%) based on an untreated control group (=100%)", "setting": "A2780; Teriflunomide 10 (μM) + IMT at the concentration (μM) in c1 of the row (30-0), IMT 0.94 µM", "value": 19, "unit": "%"}, {"measurement": "Measured residual activity (%) based on an untreated control group (=100%)", "setting": "A2780; Teriflunomide 30 (μM) + IMT at the concentration (μM) in c1 of the row (30-0), IMT 0.03 µM", "value": 19, "unit": "%"}, {"measurement": "Measured residual activity (%) based on an untreated control group (=100%)", "setting": "A2780; Teriflunomide 30 (μM) + IMT at the concentration (μM) in c1 of the row (30-0), IMT 30 µM", "value": 13, "unit": "%"}, {"measurement": "combination of IMT and GLUTi compared to treatment with only the GLUTi BAY-876 alone", "setting": "A2780; A2780, CTG matrix, 30 μM to 15 nM IMT + 30 μM to 40 nM BAY-876", "value": "advantage of the combination"}]}, {"smiles": "CC1(C)CCC(CN2CCN(c3ccc(C(=O)NS(=O)(=O)c4ccc(NCC5CCOCC5)c([N+](=O)[O-])c4)c(Oc4cnc5[nH]ccc5c4)c3)CC2)=C(c2ccc(Cl)cc2)C1", "note": "[Venetoclax]", "values": [{"measurement": "PK parameters, in particular the plasma and tissue concentrations", "setting": "[2]", "value": "do not significantly influence one another"}]}]}
